Assays:
[1] = test system: ornithine decarboxylase (ODC), TPA induced; experiment: Inhibition of TPA-induced ornithine decarboxylase (ODC) activity, essentially the method of Verma & Boutwell; format: biochemical; settings: concentration attaining 80% inhibition of TPA induced ODC activity
From the text: The retionic acid like activity of these compounds was confirmed through the classic measure of retionic acid activity involving the effects of retionic acid on ornithine decarboxylase. The original work on the correlation between retionic acid and decrease in cell proliferation was done by Verma & Boutwell, Cancer Research, 1977, 37, 2196-2201. That reference discloses that ornithine decarboxylase (ODC) activity increased precedent to polyamine biosynthesis. It has been established elsewhere that increases in polyamine synthesis can be correlated or associated with cellular proliferation. Thus, if ODC activity could be inhibited, cell hyperproliferation could be modulated. Although all causes for ODC activity increase are unknown, it is known that 12-0-tetradecanoylphorbol-13-acetate (TPA) induces ODC activity.
By way of example of retionic acid-like activity it is noted that in the assay conducted essentially in accordance with the method of Verman & Boutwell, ibid, the following examples of compounds made in accordance with the process of the present invention (Compounds 10, 11 and 12) attained an 80% inhibition of TPA induced ODC activity at the following concentrations (IC80): […]

[2] = test system: ornithine decarboxylase (ODC), TPA induced; settings: background statement on retinoic acid; Verma & Boutwell, Cancer Research, 1977, 37, 2196-2201; cited from earlier work

| Compound | IC80 conc [1] [mmols] | inhibition of induction of ODC activity by TPA [2] |
| --- | --- | --- |
| CCOC(=O)c1ccc(C#Cc2ccc3c(c2)C(C)(C)CC(C)(C)S3)nc1 [Compound 10] | 0.69 | – |
| CCOC(=O)c1ccc(C#Cc2cc3c(cc2C)OC(C)(C)CC3(C)C)nc1 [Compound 12, Ethyl-6-[(2,2,4,4,7-pentamethyl-6-chromanyl)-ethynyl nicotinate] | 0.2 | – |
| CCOC(=O)c1ccc(C#Cc2ccc3c(c2)C(C)(C)CC(C)(C)O3)nc1 [Compound 11] | 0.13 | – |
| CC1=C(/C=C/C(C)=C/C=C/C(C)=C/C(=O)O)C(C)(C)CCC1 [Retionic acid, retionic acid] | – | inhibits this induction of ODC activity by TPA |
